Laboratory results reported in publication PMC9026428, “New Peptide Based Fluconazole Conjugates with Expanded Molecular Targets” (Pharmaceutics, 2022).
≈ marks a conversion by molar mass, not a printed value. Residues, ends and D or L forms follow the SMILES beside them. *: point of attachment. X1 = O=C(CCCC(=O)*)OC(Cn1cncn1)(Cn1cncn1)c1ccc(F)cc1F

Legend:
Assay in all cases: microbe, parasite or virus in culture
Candida albicans 574 = settings: C. albicans 574 (fluconazole-resistant clinical isolate), RPMI 1640/MOPS pH 7.0, 24 h, 37 °C, triplicate; for MIC50: at least 50% growth inhibition vs growth control; for MIC90: lowest concentration with no visible growth
Description: (§1) The assessment of antifungal potential of synthesized agents was carried out using four reference strains (C. albicans ATCC 10231, C. albicans SC5314, C. glabrata DSM […] and C. krusei DSM […]) and six clinical isolates of fluconazole-resistant C. albicans that were provided by the Hospital of Medical University of Gdansk, Poland. Moreover, four C. albicans isolates, assigned as B3, B4, Gu4 and Gu5, were used for investigation whether the synthesized fluconazole derivatives were effectively removed from the yeast cells by the drug efflux transporters, as in the case of fluconazole. These strains were kindly provided by Prof. Joachim Morschhäuser from University of Würzburg (Würzburg, Germany). Strains Gu4 and B3 were fluconazole-sensitive isolates obtained from early infection episodes, while Gu5 and B4 were the corresponding fluconazole-resistant isolates obtained from later episodes in the same patients treated with fluconazole. The lack of susceptibility of the Gu5 strain to fluconazole was a consequence of overexpression of CDR1/2 genes encoding ABC transporters, whereas the resistance of B4 strain was caused by overexpression of the MDR1 gene encoding a membrane transport protein of the major facilitator superfamily (MFS). All of these Candida spp. strains were maintained on YPD agar plates (1% (w/v) yeast extract, 2% (w/v) peptone, 2% (w/v) glucose, 2% (w/v) agar) at 30 °C for 16–24 h. For all of the assays aimed at assessing the antifungal potential of the synthesized agents, the yeasts were cultivated at 37 °C in RPMI 1640 medium (with L-glutamine, without sodium bicarbonate, Sigma-Aldrich, Darmstadt, Germany)) buffered to a pH of 7.0 with 0.165 M morpholinepropanesulfonic acid (MOPS) buffer (Sigma-Aldrich). In this study, we used the human foreskin fibroblast cell line Hs27 (ATCC CRL 1634TM) and the human endothelial cell line HUVEC (C2519A), purchased from Lonza Group AG, (Basel, Switzerland). The Hs27 cells were maintained in cell media consisting of Dulbecco’s modified Eagles medium (DMEM), (Corning, Arizona, USA) with 10% fetal bovine serum (FBS), (Corning, Port Elizabeth, South Africa), 1% penicillin/streptomycin (Sigma-Aldrich Inc., Darmstadt, Germany), and 1% L-glutamine (Corning, Arizona, USA). The human endothelial cell line was maintained in cell media consisting of Endothelial Cell Growth Medium-2 Single Quots Kit (Lonza, USA). Both cell lines were cultured in an incubator at 37 °C and 5% CO2.
(§2) Antifungal activity of the tested compounds against yeast cells was determined in 96-well plates as described in the CLSI document M27-A3 [39], with minor modifications (CLSI, 2008). […] The plates were incubated for 24 h at 37 °C. Each test was performed in triplicate. The final concentration of DMSO was ensured to be around 1% in all experiments.
(§3) For determination of minimum fungicidal concentrations (MFC), small aliquots of suspensions (around 10 μL) from each well were transferred using the pipette to YPD agar plates without inhibitors and incubated for 24 h at 37 °C.

Candida albicans B4 = settings: C. albicans B4 (fluconazole-resistant, MDR1 overexpression), RPMI 1640/MOPS pH 7.0, 24 h, 37 °C, triplicate; for MIC50: at least 50% growth inhibition vs growth control; for MIC90: lowest concentration with no visible growth
Description: as §1, §2, §3

[1] = system: Candida albicans ATCC 10231; settings: C. albicans ATCC 10231, RPMI 1640/MOPS pH 7.0, 24 h, 37 °C, triplicate; for MIC50: at least 50% growth inhibition vs growth control; for MIC90: lowest concentration with no visible growth
Description: as §1, §2, §3

Candida albicans 138 = settings: C. albicans 138 (fluconazole-resistant clinical isolate), RPMI 1640/MOPS pH 7.0, 24 h, 37 °C, triplicate; for MIC50: at least 50% growth inhibition vs growth control; for MIC90: lowest concentration with no visible growth
Description: as §1, §2, §3

Candida albicans 190 = settings: C. albicans 190 (fluconazole-resistant clinical isolate), RPMI 1640/MOPS pH 7.0, 24 h, 37 °C, triplicate; for MIC50: at least 50% growth inhibition vs growth control; for MIC90: lowest concentration with no visible growth
Description: as §1, §2, §3

Candida krusei DSM 11226 = settings: C. krusei DSM 11226, 37 °C; for MIC50 / MIC90: RPMI 1640/MOPS pH 7.0, 24 h, triplicate; for MIC50: at least 50% growth inhibition vs growth control; for MIC90: lowest concentration with no visible growth
Description: as §1, §2, §3

Candida albicans Gu4 = settings: C. albicans Gu4 (fluconazole-sensitive isolate), RPMI 1640/MOPS pH 7.0, 24 h, 37 °C, triplicate; for MIC50: at least 50% growth inhibition vs growth control; for MIC90: lowest concentration with no visible growth
Description: as §1, §2, §3

Candida albicans 48 = settings: C. albicans 48 (fluconazole-resistant clinical isolate), RPMI 1640/MOPS pH 7.0, 24 h, 37 °C, triplicate; for MIC50: at least 50% growth inhibition vs growth control; for MIC90: lowest concentration with no visible growth
Description: as §1, §2, §3

Candida albicans 247 = settings: C. albicans 247 (fluconazole-resistant clinical isolate), RPMI 1640/MOPS pH 7.0, 24 h, 37 °C, triplicate; for MIC50: at least 50% growth inhibition vs growth control; for MIC90: lowest concentration with no visible growth
Description: as §1, §2, §3

Candida albicans Gu5 = settings: C. albicans Gu5 (fluconazole-resistant, CDR1/2 overexpression), RPMI 1640/MOPS pH 7.0, 24 h, 37 °C, triplicate; for MIC50: at least 50% growth inhibition vs growth control; for MIC90: lowest concentration with no visible growth
Description: as §1, §2, §3

Candida albicans SC 5314 = settings: C. albicans SC 5314, 37 °C; for MIC50 / MIC90: RPMI 1640/MOPS pH 7.0, 24 h, triplicate; for MIC50: at least 50% growth inhibition vs growth control; for MIC90: lowest concentration with no visible growth
Description: as §1, §2, §3

Candida albicans B3 = settings: C. albicans B3 (fluconazole-sensitive isolate), RPMI 1640/MOPS pH 7.0, 24 h, 37 °C, triplicate; for MIC50: at least 50% growth inhibition vs growth control; for MIC90: lowest concentration with no visible growth
Description: as §1, §2, §3

[2] = aliquots plated on YPD agar, 24 h, lowest concentration with no colony growth

Structure (SMILES)	MIC50 (Candida albicans 574) [µM]	MIC90 (Candida albicans 574) [µM]	MIC50 (Candida albicans B4) [µM]	MIC90 (Candida albicans B4) [µM]	MIC50 [1] [µM]	MIC90 [1] [µM]	MIC50 (Candida albicans 138) [µM]	MIC90 (Candida albicans 138) [µM]	MIC50 (Candida albicans 190) [µM]	MIC90 (Candida albicans 190) [µM]	MIC50 (Candida krusei DSM 11226) [µM]	MIC90 (Candida krusei DSM 11226) [µM]	MIC50 (Candida albicans Gu4) [µM]	MIC90 (Candida albicans Gu4) [µM]	MIC50 (Candida albicans 48) [µM]	MIC90 (Candida albicans 48) [µM]	MIC50 (Candida albicans 247) [µM]	MIC90 (Candida albicans 247) [µM]	MIC50 (Candida albicans Gu5) [µM]	MIC90 (Candida albicans Gu5) [µM]	also measured
CSCC[C@H](NC(=O)[C@H](C)NC(=O)[C@H](CCCNC(=N)N)NC(=O)[C@H](CCCCN)NC(=O)[C@H](Cc1c[nH]c2ccccc12)NC(=O)[C@H](CCC(N)=O)NC(=O)[C@H](Cc1ccccc1)NC(=O)[C@H](CS)NC(=O)CCCC(=O)OC(Cn1cncn1)(Cn1cncn1)c1ccc(F)cc1F)C(=O)N[C@@H](CCCNC(=N)N)C(=O)N[C@@H](CCCCN)C(=O)N[C@H](C(=O)N[C@@H](CCCNC(=N)N)C(N)=O)C(C)C [FLCpOH-HLopt2-NH2] (X1-CFQWKRAMRKVR-NH2)	250 (≈ 503 µg/mL)	>250	>250	>250	125 (≈ 251 µg/mL)	250 (≈ 503 µg/mL)	>250	>250	250 (≈ 503 µg/mL)	>250	>250	>250	>250	>250	250 (≈ 503 µg/mL)	>250	>250	>250	>250	>250	MIC50 (Candida albicans SC 5314): 62 µM (≈ 125 µg/mL); MIC90 (Candida albicans SC 5314): 125 µM (≈ 251 µg/mL); MIC50 (Candida albicans B3): >250 µM; MIC90 (Candida albicans B3): >250 µM
CSCC[C@H](NC(=O)[C@H](CCCNC(=N)N)NC(=O)[C@H](Cc1c[nH]c2ccccc12)NC(=O)[C@H](CCC(N)=O)NC(=O)[C@H](Cc1c[nH]c2ccccc12)NC(=O)[C@H](CCCNC(=N)N)NC(=O)[C@H](CCCNC(=N)N)NC(=O)[C@H](CS)NC(=O)[C@H](CCCCN)NC(=O)[C@H](Cc1ccccc1)NC(=O)CCCC(=O)OC(Cn1cncn1)(Cn1cncn1)c1ccc(F)cc1F)C(N)=O [FLCpOH-LFacinB(2-11)-NH2] (X1-FKCRRWQWRM-NH2)	190 (≈ 361 µg/mL)	250 (≈ 475 µg/mL)	190 (≈ 361 µg/mL)	250 (≈ 475 µg/mL)	125 (≈ 237 µg/mL)	250 (≈ 475 µg/mL)	190 (≈ 361 µg/mL)	250 (≈ 475 µg/mL)	190 (≈ 361 µg/mL)	250 (≈ 475 µg/mL)	31 (≈ 58.8 µg/mL)	62 (≈ 118 µg/mL)	>250	>250	250 (≈ 475 µg/mL)	>250	190 (≈ 361 µg/mL)	250 (≈ 475 µg/mL)	>250	>250	MFC (Candida krusei DSM 11226; [2]): 125 µM (≈ 237 µg/mL); MIC50 (Candida albicans SC 5314): 62 µM (≈ 118 µg/mL); MIC90 (Candida albicans SC 5314): 125 µM (≈ 237 µg/mL); MFC (Candida albicans SC 5314; [2]): 250 µM (≈ 475 µg/mL); MIC50 (Candida albicans B3): 125 µM (≈ 237 µg/mL); MIC90 (Candida albicans B3): 250 µM (≈ 475 µg/mL)
O=C(O)CCCC(=O)OC(Cn1cncn1)(Cn1cncn1)c1ccc(F)cc1F [FLCpOH]	>250	>250	>250	>250	>250	>250	>250	>250	>250	>250	>250	>250	>250	>250	>250	>250	>250	>250	>250	>250	MIC50 (Candida albicans SC 5314): >250 µM; MIC90 (Candida albicans SC 5314): >250 µM; MIC50 (Candida albicans B3): >250 µM; MIC90 (Candida albicans B3): >250 µM
